Experimental data published in the supplement of paper PMC8633005.

Assays:
Assay in all cases: drug sensitivity score (DSS) (DSS (unitless, 0-50 scale)); higher = more sensitive (stronger viability inhibition); extreme values may be limits of the assay
Details in all cases: 72 h; culture: 2D
SK-MEL-2 = system: SK-MEL-2
Method in brief: (§1)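 Viability was measured by CellTiter-Glo luminescence after 72 h at 37 °C in 384-well plates holding a 527-compound oncology library, with patient-derived melanoma cultures (1000–1500 cells per well) and melanoma cell lines grown in 2D. Every compound was tested at five concentrations spanning a 10,000-fold range. The drug sensitivity score, a modified area under the curve, came from dose-response curves fitted with in-house Breeze software.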

Bowes = system: Bowes
Method in brief: as §1

WM165 = system: WM165
Method in brief: as §1

WM852 = system: WM852
Method in brief: as §1

FM-MEL-6 = system: FM-MEL-6
Method in brief: as §1

SK-MEL-28 = system: SK-MEL-28
Method in brief: as §1

FM-MEL-2 = system: FM-MEL-2
Method in brief: as §1

FM-MEL-3 = system: FM-MEL-3
Method in brief: as §1

Compound | drug sensitivity score (SK-MEL-2) | drug sensitivity score (Bowes) | drug sensitivity score (WM165) | drug sensitivity score (WM852) | drug sensitivity score (FM-MEL-6) | drug sensitivity score (SK-MEL-28) | drug sensitivity score (FM-MEL-2) | drug sensitivity score (FM-MEL-3)
C=CC(=O)Nc1cccc(Nc2nc(Nc3ccc(N4CCN(C(C)=O)CC4)cc3OC)ncc2C(F)(F)F)c1 [Rociletinib] | 2.9 | 7.7 | 7.2 | 3 | 3.4 | 1.1 | 6.6 | 7.9
CC(=O)c1c(C)c2cnc(Nc3ccc(N4CCNCC4)cn3)nc2n(C2CCCC2)c1=O [Palbociclib] | 0.7 | 4.6 | 5.8 | 3.1 | 4.2 | 6.3 | 3.8 | 2.3
O=c1sn(-c2cccc3ccccc23)c(=O)n1Cc1ccccc1 [Tideglusib] | 0 | 0 | 0 | 0 | 0 | 0 | 0 | 0
Clc1ccc(C(c2ccccc2Cl)C(Cl)Cl)cc1 (stereo unspecified) [Mitotane] | 0 | 1 | 0 | 0 | 0 | 0 | 0 | 0
CCOc1ccccc1-n1c(C(C)N2CCN(C(=O)COc3ccc(Cl)cc3)CC2)nc2ccccc2c1=O (stereo unspecified) [Erastin] | 1.3 | 6.2 | 10.8 | 12 | 0 | 0 | 7.6 | 5.8
COc1cc(Br)c(Nc2nc(-c3c(C)nc4ncccn34)cs2)c(Br)c1 [PTC-209] | 4.2 | 13.7 | 12.4 | 7.6 | 5 | 4.6 | 5.1 | 11.2
CCCS(=O)(=O)Nc1ccc(F)c(C(=O)c2c[nH]c3ncc(-c4ccc(Cl)cc4)cc23)c1F [Vemurafenib] | 0 | 2.4 | 10.2 | 0 | 0 | 13.5 | 0 | 0
CC(C)(C)Cn1c(N)nc2ccc(-c3[nH]c(C(C)(C)C)nc3-c3ccc(F)cc3)nc21 [Ralimetinib] | 0 | 0 | 2.9 | 1 | 0 | 2 | 5.4 | 6.1
CC(C)n1nc(-c2ccc3oc(N)nc3c2)c2c(N)ncnc21 [Sapanisertib] | 7.9 | 13.2 | 11.7 | 8.6 | 11.1 | 10.2 | 10.1 | 9
O=C(O)C1(C(=O)O)CCC1.[NH2-].[NH2-].[Pt+2] [Carboplatin] | 2 | 0 | 10.2 | 0 | 7.8 | 3.2 | 0.9 | 2.8
Cc1cn(-c2cc(NC(=O)c3ccc(C)c(Nc4nccc(-c5cnccn5)n4)c3)cc(C(F)(F)F)c2)cn1 [Radotinib] | 0 | 0 | 0 | 0 | 2.6 | 0 | 5 | 8.6
O=C1NC(=O)[C@@H](c2cn3c4c(cccc24)CCC3)[C@@H]1c1c[nH]c2ccccc12 [Tivantinib] | 3.8 | 3.6 | 3.1 | 3.1 | 3.2 | 2.1 | 1.9 | 2.3
CC[C@H](CO)Nc1nc(NCc2ccccc2)c2ncn(C(C)C)c2n1 [Seliciclib] | 0 | 2.6 | 1.7 | 0 | 0 | 0 | 0.8 | 0
CN1CCN(c2ccc(C(=O)Nc3n[nH]c4ccc(Cc5cc(F)cc(F)c5)cc34)c(NC3CCOCC3)c2)CC1 [Entrectinib] | 0 | 0 | 0 | 0 | 0 | 0 | 0 | 0
CO[C@H]1C[C@@H]2CC[C@@H](C)[C@@](O)(O2)C(=O)C(=O)N2CCCC[C@H]2C(=O)O[C@H]([C@H](C)C[C@@H]2CC[C@@H](OP(C)(C)=O)[C@H](OC)C2)CC(=O)[C@H](C)/C=C(\C)[C@@H](O)[C@@H](OC)C(=O)[C@H](C)C[C@H](C)/C=C/C=C/C=C/1C [Ridaforolimus] | 0 | 0 | 7.6 | 0 | 2.7 | 3.8 | 0.9 | 0
CC(C)(C#N)c1cc(Cn2cncn2)cc(C(C)(C)C#N)c1 [Anastrozole] | 0 | 0 | 0 | 0 | 0 | 0 | 0 | 0
COc1cc2c(cc1OCCCN1CCCC1)N=C(N)C21CCC1 [A-366] | 0 | 3.8 | 2.3 | 2.7 | 0.5 | 0.6 | 0 | 0.4
O=C(c1cccc(Cl)c1F)N1CCN(Cc2cccc(Nc3nccs3)n2)CC1 [MK-8745] | 0 | 5.7 | 5.7 | 7.5 | 0 | 0.4 | 0 | 0.1
CCn1c(-c2nonc2N)nc2c(C#CC(C)(C)O)ncc(OC[C@H]3CCCNC3)c21 | 0 | 1 | 3.4 | 0 | 0 | 0 | 1 | 1.8
CCS(=O)(=O)c1cccc(-c2cc(C(=O)NC3CCN(C)CC3)c(C)c3[nH]c4ncc(C)cc4c23)c1 [TAK-901] | 2.4 | 7.3 | 9.4 | 4 | 1.9 | 4.1 | 0.9 | 1.9
O=C(NCc1ccncc1)C12CC3CC(C1)CC(c1ccc(Cl)cc1)(C3)C2 | 2 | 5.2 | 6.1 | 4.3 | 1.2 | 2.6 | 2 | 7.6

Compound | drug sensitivity score (SK-MEL-2) | drug sensitivity score (Bowes) | drug sensitivity score (WM165) | drug sensitivity score (WM852) | drug sensitivity score (FM-MEL-6) | drug sensitivity score (SK-MEL-28) | drug sensitivity score (FM-MEL-2) | drug sensitivity score (FM-MEL-3)
O=C(NOCCO)c1ccc2cncn2c1Nc1ccc(I)cc1F [GDC-0623] | 16.8 | 1.4 | 7.6 | 2.4 | 6.2 | 8.9 | 16.5 | 8.9
O=C(O)c1ccc(CN2CCC(CN[C@@H]3C[C@H]3c3ccccc3)CC2)cc1 | 0 | 0 | 0 | 0 | 0 | 0 | 0 | 0
FC(F)c1nc2ccccc2n1-c1nc(N2CCOCC2)nc(N2CCOCC2)n1 [ZSTK474] | 4.6 | 7 | 9 | 7 | 8.7 | 12.2 | 10.8 | 7.2
CCNc1nc(Nc2cc(F)c(C(=O)N3CCOCC3)cc2OC)ncc1C(F)(F)F [GNE-7915] | 0 | 0 | 0 | 0 | 0 | 0 | 0 | 2.6
CC(=O)OC[C@H]1O[C@@H]([S-])[C@H](OC(C)=O)[C@@H](OC(C)=O)[C@@H]1OC(C)=O.CCP(CC)CC.[Au+] [Auranofin] | 3.7 | 12.4 | 9.5 | 5.6 | 2.6 | 3.2 | 0.5 | 9
COc1cc(N2CCC(N3CCN(C)CC3)CC2)ccc1Nc1ncc(Cl)c(Nc2ccccc2P(C)(C)=O)n1 [Brigatinib] | 0.2 | 1.1 | 1.5 | 3.1 | 1.6 | 0.5 | 0.9 | 3.3
COc1cc(N2CCN(C)CC2)ccc1Nc1nccc(-c2cn(C)c3cnccc23)n1 [AZ191] | 0 | 3.4 | 2.7 | 1.9 | 0 | 0 | 2.4 | 0.6
O=C(O)c1ccc(-c2c[nH]c3ncc(-c4ccccc4)cc23)cc1C1CCCC1 | 0 | 0 | 1.2 | 0 | 0 | 0.7 | 0 | 0
COc1c(C)cnc(Cn2cnc3c(Cl)nc(N)nc32)c1C [BIIB021] | 10.9 | 13.2 | 17.5 | 8.7 | 7.8 | 8.9 | 11.6 | 15.5
Cc1[nH]c2ccccc2c1CCNCc1ccc(/C=C/C(=O)NO)cc1 [Panobinostat] | 16.8 | 10.1 | 19.6 | 9.3 | 12.1 | 12.9 | 16.2 | 14.9
Cn1cc(C[C@@H](N)C(=O)O)c2ccccc21 [1-methyl-D-tryptophan] | 0 | 0 | 0 | 0 | 0.6 | 0 | 0 | 0
CN(C)C/C=C/C(=O)Nc1cc2c(Nc3ccc(F)c(Cl)c3)ncnc2cc1O[C@H]1CCOC1 [Afatinib] | 0 | 2.2 | 0 | 0 | 0.3 | 0 | 0 | 0.5
COc1cc2c(Nc3ccc(Cl)c(Cl)c3F)ncnc2cc1OC[C@@H]1C[C@@H]2CN(C)C[C@@H]2C1 [Tesevatinib] | 0 | 1.8 | 0.1 | 0 | 0.3 | 0.1 | 0.1 | 0.8
Cc1[nH]nc(C(F)(F)F)c1Cc1sc2c(c1C(=O)N1C[C@](C)(O)CO1)c(=O)n(C)c(=O)n2C(C)C [AZD3965] | 0 | 8 | 0 | 0 | 0.3 | 0 | 0 | 0
CCC(C)n1ncn(-c2ccc(N3CCN(c4ccc(OCC5COC(Cn6cncn6)(c6ccc(Cl)cc6Cl)O5)cc4)CC3)cc2)c1=O (stereo unspecified) [Itraconazole] | 0 | 4.7 | 0 | 0.9 | 0 | 0 | 1.4 | 2.8
CCc1nc(C(N)=O)c(Nc2ccc(N3CCC(N4CCN(C)CC4)CC3)c(OC)c2)nc1NC1CCOCC1 [Gilteritinib] | 1.7 | 0 | 2.8 | 1.8 | 1.9 | 2.7 | 3.7 | 5
CC(C)Oc1ccc(-c2nn([C@@H](C)c3oc4ccc(F)cc4c(=O)c3-c3cccc(F)c3)c3ncnc(N)c23)cc1F [TGR-1202] | 0 | 0.9 | 0 | 1 | 0 | 0 | 0.9 | 0
COc1ccc(C[C@H](NC(=O)[C@H](C)NC(=O)CN2CCOCC2)C(=O)N[C@@H](Cc2ccccc2)C(=O)C2(C)CO2)cc1 (stereo in doubt) [ONX-0914] | 15.6 | 21.2 | 18.8 | 16.6 | 18.7 | 19.4 | 13.5 | 19.2
CN1CCN(c2ccc3nc(-c4c(N)c5c(F)cccc5[nH]c4=O)[nH]c3c2)CC1 [Dovitinib] | 0 | 0.5 | 0.3 | 0 | 0 | 0 | 0 | 0
O=C(/C=C\n1cnc(-c2cc(C(F)(F)F)cc(C(F)(F)F)c2)n1)NNc1cnccn1 [Selinexor] | 13.3 | 12.4 | 18.7 | 8.2 | 8.4 | 9.2 | 9.6 | 11.5
O[C@H]1CC[C@H](Nc2ncc3nc(Nc4c(F)cc(F)cc4F)n([C@H]4CCOC4)c3n2)CC1 [Tanzisertib] | 0 | 0 | 0.1 | 0 | 0 | 0.8 | 0 | 0.1
